The values below come from patent US12187702B2, “Sulfonamideurea compounds” (Inflazome Limited, priority 2018, dated 2025).

Molecules are shown by their SMILES. Where a name gives a salt, the structure may show the parent alone. Where only a bound is given, the exact number is not on record here.

In data set [1] the target is T1, NLRP3 (Homo sapiens, UniProt Q96P20). The experiment in a line: Human whole blood IL-1β release assay (LPS + nigericin, AlphaLisa). The format is cell-based. Also noted: Plate out 80 μl of whole blood containing 1 μg/ml of LPS; from tissue; host or cells: human whole blood from healthy donors. As to conditions: human whole blood, 1 μg/ml LPS, 10 μM nigericin; IL-1β release; read-out: HWB IC50. The method, boiled down:
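Healthy-donor Li-heparin whole blood containing 1 μg/ml LPS incubated with compound (8-point half-log dilution, 10 μM top) for 3 h at 37 °C, then with 10 μM nigericin for 1 h. Supernatant IL-1β measured by AlphaLisa; IC50 from 4-parameter variable-slope fit.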

The nature of data set [2]: PK, intravenous administration. The format is in vivo, male Sprague Dawley rats. As to conditions: male, Sprague Dawley, plasma, rat; for clearance / half-life: dose per compound as in Table 3; for AUC: dose per compound as in Table 3 (0.08-1.86 mg/kg); for Vd: dose per compound as in Table 3, read-out: Vdss. How it is done:
(§1) Pharmacokinetic parameters were determined in male Sprague Dawley rats (Charles River, UK, 250-350 g; or Vital River Laboratory Animal Technology Co Ltd, Beijing, China, 7-9 weeks old). Animals were individually housed during the study and maintained under a 12 h light/dark cycle.
(§2) For intravenous administration, compounds were formulated as a solution in water or DMSO:PBS [10:90] in 2 mL/kg dosing volume and administered via tail or jugular vein. For oral administration, compounds were formulated as a solution in 0.5% w/v methyl cellulose in water in 5 mL/kg dosing volume and administered orally.
(§3) Serial blood samples (about 120-300 μL) were taken from each animal at each of 8 time-points post dose (0.083, 0.25, 0.5, 1, 2, 4, 8 and 24 h) or at each of 12 time-points post dose (0.03, 0.1, 0.17, 0.25, 0.5, 1, 2, 4, 6, 8, 12 and 24 h) or pre-dose and at each of 9 time-points post dose (0.25, 0.5, 1, 2, 4, 6, 8, 12 and 24 h). Samples were held on ice for no longer than 30 minutes before centrifugation (10,000 rpm (8,385 g) for 3 minutes; or 5,696 rpm (3,000 g) for 15 minutes) for plasma generation. Plasma was frozen on dry ice prior to bioanalysis. PK parameters were generated from LC-MS/MS data using Dotmatics or Phoenix WinNonlin 6.3 software.

Data set [3] has as its target T1, NLRP3. Kind of data set: THP-1 cells pyroptosis assay (LPS + nigericin, resazurin read-out). The format is cell-based. The arrangement: Seed THP-1 cells (25,000 cells/well) containing 1.0 μg/ml LPS; host or cells: THP-1 cells. As to conditions: THP-1 cells, 1 μg/ml LPS, 5 μM nigericin; NLRP3 inhibitory activity; read-out: THP IC50. The method, boiled down: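 THP-1 cells (25,000/well) primed with 1 μg/ml LPS in serum-free RPMI, treated 3 h with compound (8-point half-log series, 10 μM top, 0.1% DMSO), then 5 μM nigericin for 1 h at 37 °C. Viability read by 100 μM resazurin fluorescence after 1-2 h; IC50 from 4-parameter fit.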

A further data set is described as follows: PK, oral administration. The format is in vivo, male Sprague Dawley rats. As to conditions: male, Sprague Dawley, plasma, rat, 3 mg/kg. As for the experimental part:
as §1, §2, §3

T1 sequence (Q96P20 whole entry): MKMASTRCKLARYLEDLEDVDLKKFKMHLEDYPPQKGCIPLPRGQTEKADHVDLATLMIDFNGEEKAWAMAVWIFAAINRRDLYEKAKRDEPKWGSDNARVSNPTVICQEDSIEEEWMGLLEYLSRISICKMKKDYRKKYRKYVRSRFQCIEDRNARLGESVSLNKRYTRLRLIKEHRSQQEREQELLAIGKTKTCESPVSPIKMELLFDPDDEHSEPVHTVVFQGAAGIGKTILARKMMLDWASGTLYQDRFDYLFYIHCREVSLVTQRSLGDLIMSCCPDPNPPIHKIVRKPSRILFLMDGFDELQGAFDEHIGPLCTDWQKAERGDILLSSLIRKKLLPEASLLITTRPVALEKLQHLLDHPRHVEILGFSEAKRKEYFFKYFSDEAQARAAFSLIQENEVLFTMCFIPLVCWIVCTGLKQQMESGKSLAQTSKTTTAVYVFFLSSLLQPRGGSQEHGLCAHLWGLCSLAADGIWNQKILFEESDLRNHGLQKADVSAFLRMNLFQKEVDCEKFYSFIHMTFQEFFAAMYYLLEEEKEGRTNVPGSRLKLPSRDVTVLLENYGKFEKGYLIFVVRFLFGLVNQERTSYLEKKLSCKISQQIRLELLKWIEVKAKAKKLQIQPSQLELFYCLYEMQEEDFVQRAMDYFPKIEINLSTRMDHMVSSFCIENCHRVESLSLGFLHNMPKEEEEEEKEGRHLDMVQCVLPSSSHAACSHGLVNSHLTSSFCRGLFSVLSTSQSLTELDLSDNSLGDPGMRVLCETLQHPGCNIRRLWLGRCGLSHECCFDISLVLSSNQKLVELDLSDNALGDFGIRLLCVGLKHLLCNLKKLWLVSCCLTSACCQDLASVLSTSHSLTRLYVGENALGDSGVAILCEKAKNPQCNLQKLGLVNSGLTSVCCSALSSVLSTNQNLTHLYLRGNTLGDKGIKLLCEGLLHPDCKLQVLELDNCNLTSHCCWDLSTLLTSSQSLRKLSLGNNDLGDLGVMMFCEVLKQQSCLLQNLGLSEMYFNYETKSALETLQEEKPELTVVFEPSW

As for `CN(C)CCNS(=O)(=O)NC(=O)Nc1c2c(cc3c1CCC3)CCC2` [Example 8, 3-(N-(2-(Dimethylamino)ethyl)sulfamoyl)-1-(1,2,3,5,6,7-hexahydro-s-indacen-4-yl)urea], the concentration for half-maximal inhibition (IC50) at NLRP3 [1] is < 500 nM. Moreover, in data set [2], the clearance was found to be 7.3 mL/min/kg, the half-life was 4 h, the area under the curve (AUC) worked out at 2290 ng·h/mL and the Vd was 0.61 L/kg. Moreover, the IC50 at NLRP3 [3] is < 1000 nM.
Take `CN1CCC(N(C)S(=O)(=O)NC(=O)Nc2c3c(cc4c2CCC4)CCC3)C1` (stereo not drawn) [Example 11, 3-(N-Methyl-N-(1-methylpyrrolidin-3-yl)sulfamoyl)-1-(1,2,3,5,6,7-hexahydro-s-indacen-4-yl)urea, potassium salt]: the IC50 at NLRP3 [1] was < 500 nM. In data set [2], the clearance worked out at 2.9 mL/min/kg, the half-life is 2.7 h, the area under the curve (AUC) worked out at 5660 ng·h/mL and the Vd was 0.59 L/kg. On NLRP3 [3], the IC50 was < 500 nM.
For `CN1CCCCC1CNS(=O)(=O)NC(=O)Nc1c2c(cc3c1CCC3)CCC2` (stereo not drawn) [Example 20, 3-(N-((1-Methylpiperidin-2-yl)methyl)sulfamoyl)-1-(1,2,3,5,6,7-hexahydro-s-indacen-4-yl)urea, potassium salt], the IC50 on NLRP3 [1] was < 500 nM. In data set [2], the clearance was determined as 7.1 mL/min/kg, the half-life was 1.2 h, the AUC worked out at 2360 ng·h/mL and the Vd was 0.4 L/kg. In addition, the half-maximal inhibitory concentration (IC50) at NLRP3 [3] was < 500 nM.
`CC(C)N1CCC(N(C)S(=O)(=O)NC(=O)Nc2c3c(cc4c2CCC4)CCC3)C1` (stereo not drawn) [Example 36, 3-(N-(1-isopropylpyrrolidin-3-yl)-N-methylsulfamoyl)-1-(1,2,3,5,6,7-hexahydro-s-indacen-4-yl)urea, potassium salt]: on NLRP3 [1], the half-maximal inhibitory concentration (IC50) is < 1000 nM. Also, in data set [2], the clearance turned out to be 2.8 mL/min/kg, the half-life was 1.1 h, the area under the curve (AUC) was found to be 5910 ng·h/mL and the Vd was found to be 0.23 L/kg. In addition, the IC50 at NLRP3 [3] was < 500 nM.
For `CN1CC[C@@H](N(C)S(=O)(=O)NC(=O)Nc2c3c(cc4c2CCC4)CCC3)C1` [Example 66, 3-((R)—N-Methyl-N-(1-methylpyrrolidin-3-yl)sulfamoyl)-1-(1,2,3,5,6,7-hexahydro-s-indacen-4-yl)urea, potassium salt], at NLRP3 [1], the half-inhibitory concentration (IC50) was < 500 nM. In data set [2], the clearance came to 3.7 mL/min/kg, the half-life is 3.44 h, the AUC came out at 6760 ng·h/mL and the Vd worked out at 0.43 L/kg. The half-maximal inhibitory concentration (IC50) on NLRP3 [3] was < 500 nM.
For `CN1CCC2CN(S(=O)(=O)NC(=O)Nc3c4c(cc5c3CCC5)CCC4)CC21` (stereo not drawn) [Example 96, N-((1,2,3,5,6,7-Hexahydro-s-indacen-4-yl)carbamoyl)-1-methylhexahydropyrrolo[3,4-b]pyrrole-5(1H)-sulfonamide, potassium salt], the IC50 at NLRP3 [1] is < 500 nM. Also, in data set [2], the clearance is 5.7 mL/min/kg, the half-life was 1.14 h, the AUC was 5150 ng·h/mL and the Vd was 0.45 L/kg. For the same compound, at NLRP3 [3], the IC50 was < 500 nM.
Regarding `COc1cc(-c2ccc3c(c2NC(=O)NS(=O)(=O)N(C)[C@@H]2CCN(C)C2)CCC3)ccn1` [Example 110, (R)-3-(N-Methyl-N-(1-methylpyrrolidin-3-yl)sulfamoyl)-1-(5-(2-methoxypyridin-4-yl)-2,3-dihydro-1H-inden-4-yl)urea, potassium salt], in “PK, oral administration”, the AUC was 1020 ng·h/mL, the CL/F was 50 mL/min/kg, the Cmax is 277 ng/mL and the time to peak (Tmax) was found to be 0.67 h. In the data set “PK, oral administration”, the bioavailability was determined as 41% and the half-life was 3.4 h. At NLRP3 [1], the IC50 is < 500 nM. Further, in data set [2], the clearance came to 20 mL/min/kg, the half-life was 3.9 h, the AUC is 835 ng·h/mL and the Vd was 1.6 L/kg. For the same compound, the IC50 on NLRP3 [3] was < 500 nM.
Consider `COc1cc(-c2ccc3c(c2NC(=O)NS(=O)(=O)N(C)[C@H]2CCN(C)C2)CCC3)ccn1` [Example 111, (S)-3-(N-methyl-N-(1-methylpyrrolidin-3-yl)sulfamoyl)-1-(5-(2-methoxypyridin-4-yl)-2,3-dihydro-1H-inden-4-yl)urea, potassium salt], for which, in “PK, oral administration”, the AUC is 1380 ng·h/mL, the CL/F worked out at 38 mL/min/kg, the concentration peaked (Cmax) at 318 ng/mL and the time to peak (Tmax) was found to be 0.67 h. Further, in “PK, oral administration”, the bioavailability is 47% and the half-life was 4 h. Moreover, the IC50 at NLRP3 [1] is < 500 nM. In data set [2], the clearance is 17 mL/min/kg, the half-life is 4.8 h, the AUC stood at 979 ng·h/mL and the Vd came out at 1.3 L/kg. Moreover, on NLRP3 [3], the IC50 is < 500 nM.
